Earlier results in patent US20070026067A1, “Liquid formulations for controlled delivery of benzisoxazole derivatives” (priority 2005, published 2007).

Legend:
[1] = in vivo

Row | Structure (SMILES) | solubility in water | half-life [1]
1 | Cc1nc2n(c(=O)c1CCN1CCC(c3noc4cc(F)ccc34)CC1)CCCC2O (stereo not drawn) [Paliperidone] | practically insoluble | about one
2 | Cc1nc2n(c(=O)c1CCN1CCC(c3noc4cc(F)ccc34)CC1)CCCC2 [Risperidone] | practically insoluble | –
